# Assay results: US11213512B2, “Bis-amino acid based compound and use thereof” (THE CURATORS OF THE UNIVERSITY OF MISSOURI, priority 2016, dated 2022)
# Tests used:
# [1] = test system: Cos-7 cells; experiment: Cytotoxicity to mammalian cells, XTT assay; format: cell-based, Cercopithecus aethiops; settings: at MIC against Tet^R E. coli (2: 48, 7: 128, 10: 10 μM), 24 h
# Description: (§1) It was initially hypothesized that antimicrobial activity resulted from membrane disruption. Membrane active compounds are often cytotoxic to mammalian cells (Shai, Biopolymers 2002, 66, 236-48; Shai, et al., Curr. Protein Pept. Sci. 2006, 7, 479-86). The survival of three mammalian epithelial cell lines was assayed for 2, 3, 5, and 10. […] The cell lines studied were human embryonic kidney (HEK-293), human cervix epithelial (HeLa, ATCC Accession No. CCL-2), and Cercopithecus aethiops kidney (Cos-7, ATCC Accession No. CRL 1651). HeLa cells were acquired from ATCC. Cos-7 and HEK-293 cells were donated by colleagues. Cell lines were regularly maintained in growth media containing DMEM (ATCC), 10% fetal bovine serum (FBS, ATCC) and 1% penicillin-streptomycin solution (ATCC). Adherent HEK-293, HeLa and Cos-7 cells were trypsinized using 0.25% (w/v) trypsin-EDTA (Sigma-Aldrich), suspended in a fresh media and diluted to get a concentration of 3×10^5 cells/ml. Cells were seeded in a 96-well plate (100 μL/well) to get 3×10^4 cells/well. The plates were incubated for 24 hours at 5% CO2 and 37° C. to reach a confluency of 80-90%.
# (§2) In a sterile 1.5 mL micro-centrifuge tube, compounds 2, 3, 5, 6, 7 and 10 (0.5% DMSO) were mixed with assay media (DMEM+10% FBS) and serially diluted by 2-fold each to get 2[MIC], [MIC], ½[MIC] and ¼ [MIC] concentrations. A control containing 0.5% DMSO was also prepared. After 24 hours, the spent media in the 96-well plate containing HEK-293, HeLa and Cos-7 cells (90% confluency) was replaced with 100 μL media containing the compounds 2, 3, 5, 6, 7 and 10 at various concentrations. The cells were incubated at 37° C. and 5% CO2 for 24 hours before performing XTT assay (Sigma-Aldrich). The XTT assay was performed according to the manufacturer's protocol. After 24 hours of treatment with compounds, the media was replaced with PBS and 25 μL XTT was added to each well. The XTT assay works by the reduction of tetrazolium compound by alive cells to the colored soluble formazan product. The absorbance of the product was measured at 450 nm (XTT) and 690 nm (background). Percent survival was calculated by comparing the average absorbance of cells treated with compounds 2, 3, 5, 6, 7, and 10 to that of cells alone. Two replicates for each treatment were determined. Average percent survival and standard deviation were calculated.
# (§3) Cells were cultured for 24 h in 96-well plates and treated with media containing concentrations using [MIC] and [MIC]×2 determined previously for Tet^R E. coli. The number of surviving cells was determined using an XTT assay (Sigma-Aldrich); the results are represented as percent survival in FIG. 2. Cells alone were used as controls and established 100% survival. The data represent two replicates of three trials and the error bars represent the standard deviation.
# [2] = test system: Tet^R E. coli; experiment: Recovery of tetracycline activity (co-administration, MIC of tetracycline); format: cell-based, Escherichia coli; settings: for Fold Recovery of tetracycline activity: tetracycline alone 900 μM
# Description: MIC experiments were performed as described in the Clinical and Laboratory Standards Institute (CLSI) standard microdilution protocols. Bacteria was grown overnight from one CFU in media without antibiotics. Tet^R E. coli was grown in media containing 100 μg/mL Ampicillin. On the day of experiment, bacteria were knocked back to O.D. 600 nm=0.550 in the same media. These exponential phase bacteria were then diluted in antibiotics-free media to get […]. In a 96-well plate either L. B. Miller or MHII media was added followed by serially diluted compounds 1-11, tetracycline, or ampicillin. All the tryptophan based compounds were dissolved in DMSO and the final concentration of DMSO in each well was kept constant at 0.5% (v/v).
# For the combination experiments, first, the BT or control was added to the media in the well followed by the antibiotics. The contents of the well were mixed before adding 20 μL of bacteria to get 4×10^5 CFU/mL per well. The plates were incubated at 37° C., 200 RPM for 24 hours before collecting results on the Biotek Cytation 3 plate reader. No more than three plates were stacked on top of each other at a time. Optical density of the wells was determined at λ=600 nm. Cells alone were considered as 0% inhibition and media alone was considered as 100% inhibition. Any inhibition greater than 80% was considered as the MIC. The results were reproduced three times before reporting.
# First, MICs were determined for compounds 2, 3, 5, 6, 7, and 10 against Tet^R E. coli. Compounds 6 (para-Ph) and 7 (n-C3) were also included as controls. The MICs against Tet^R E. coli were refined compared to the power series and are reported as a range in Table 1 above. The MICs of tetracycline and ampicillin against Tet^R E. coli were 900±100 μM and >1000 μM, respectively. For comparison, the MIC for tetracycline against non-resistant E. coli K-12 is ˜3 μM. Ampicillin was used to maintain selective pressure for the expression of pBR322 plasmid. Ampicillin was omitted from experiments that contained tetracycline. Next, the MIC of tetracycline was determined when co-administered with 2, 3, 5, 6, 7, or 10. The results are represented as the MIC of tetracycline in the presence of the indicated BTs. The fold-recovery was determined by dividing the MIC of tetracycline when used alone by the MIC of tetracycline determined in the presence of the compounds.
# The fractional inhibitory concentration (FIC) is often used as a measure of synergism or antagonism in comparing two or more compounds (Berenbaum, Pharmacol. Rev. 1989, 41, 93-141). The FIC is the sum of the fraction of the MIC for each compound used. Synergy is defined broadly as FIC<1, or more conservatively as FIC≤0.5. Under the broad definition, all compounds tested can be said to have at least moderate synergy with tetracycline. All arene-based compounds fit the more conservative definition of synergy with FIC values of 0.5 or less at the tested concentrations.
# [3] = test system: HeLa cells; experiment: Cytotoxicity to mammalian cells, XTT assay; format: cell-based, human; settings: at MIC against Tet^R E. coli (2: 48, 7: 128, 10: 10 μM), 24 h
# Description: as §1, §2, §3
# [4] = test system: HEK-293 cells; experiment: Cytotoxicity to mammalian cells, XTT assay; format: cell-based, human; settings: at MIC against Tet^R E. coli (2: 48, 7: 128, 10: 10 μM), 24 h
# Description: as §1, §2, §3
# [5] = compound at ¼ MIC (2: 12, 3: 7, 5: 14, 6: 30, 7: 30, 10: 2.5 μM)
# [6] = compound at ½ MIC (2: 24, 3: 14, 5: 28, 6: 60, 7: 60, 10: 5 μM)
structure (smiles),measurement,setting,value
"Cl.Cl.N[C@H](Cc1c[nH]c2ccccc12)C(=O)NCCCCCCCCCCCCNC(=O)[C@@H](N)Cc1c[nH]c2ccccc12 [Compound 10, (S)-1-((12-((R)-2-Ammonio-3-(1H-indol-3-yl)propanamido)dodecyl)amino)-3-(1H-indol-3-yl)-1-oxopropan-2-aminium chloride]",cytotoxicity to Cos-7 (in words),[1],minimally toxic
same,FIC (synergy with tetracycline),"[2]; at the tested concentrations, synergy FIC<1 (broad) or FIC≤0.5 (conservative)",≥ 0.75
same,FIC (fractional inhibitory concentration) with tetracycline,[2]; [5],0.75
same,MIC [Tet] (tetracycline in the presence of the compound),[2]; [5],450 µM
same,Fold Recovery of tetracycline activity,[2]; [5],2-fold
same,FIC (fractional inhibitory concentration) with tetracycline,[2]; [6],0.75
same,MIC [Tet] (tetracycline in the presence of the compound),[2]; [6],225 µM
same,Fold Recovery of tetracycline activity,[2]; [6],4-fold
same,recovery of tetracycline activity,[2]; compound at ½ and ¼ of its MIC,2 to 4 fold
same,cytotoxicity to HeLa (in words),[3],moderately toxic
same,cytotoxicity to HEK-293 (in words),[4],minimally toxic
